From US20250073358A1, “AROMATIC VINYL COMPOUND, METAL COMPLEX THEREOF, AND PREPARATION METHOD THEREFOR AND USE THEREOF” (SHANGHAI MAXINOVEL PHARMACEUTICALS CO., LTD., priority 2021, published 2025) come the findings set out here.

One test deals with PD-1/PD-L1 (Homo sapiens (Human), UniProt Q9NZQ7). The test is described as follows: Homogenouse Time-Resolved Fluorescence (HTRF) binding assay, PD-1/PD-L1. The method, then: Homogenouse Time-Resolved Fluorescence (HTRF) binding assay was used to detect the binding ability of the compound of the present disclosure to PD-1/PD-L1.
The purchased kit (CisBio, #64CUS000C-1) contains reagents required for experiments such as PD-1, PD-L1, anti-tag1-Eu, Anti-tag2-XL665, Dilute Buffer, and Detection Buffer.
• 1. The compound was configured with 100% DMSO into 10 concentrations with a concentration gradient of 3 times. • 2. The DMSO solution of the compound was added to Dilute Buffer solution, and the mixture was mixed well and transferred to a 96-well plate. • 3. PD-L1 was diluted with Dilute Buffer solution and then added to the above 96-well plate. • 4. PD-1 was diluted with Dilute Buffer solution and then added to the above 96-well plate, and incubated at room temperature for 30 minutes. • 5. One part of anti-tag1-Eu and one part of Anti-tag2-XL665 were added to Detection Buffer solution, and the mixture was mixed well and transferred to the above 96-well plate. • 6. The mixture in the 96-well plate was incubated at room temperature for 1 to 24 hours. • 7. The HTRF values were read with Envision.

A further test relates to tumor. The test is described as follows: Inhibitory effect on tumor in tumor-bearing mice. The format is in vivo, C57/BL6 mice. To be noted: tail vein injection, 45 MBq per mouse, compared with the control group (PBS). An excerpt: • 1. Inhibitory effect of compound 78 on tumor • 1.1 Experimental animal information: tumor-bearing C57/BL6 mice; SPF grade; weight range: 17-20 g; Shanghai Qi'up Biomedical Technology Co., Ltd. • 1.2 Experimental process
Ten tumor-bearing mice with tumor volumes of 10-100 mm^3 were systematically and randomly divided into 2 groups according to tumor size, with 5 mice in each group, corresponding to PBS and compound 78 respectively. After anesthesia with isoflurane, tumor-bearing mice were injected into the tail vein with compound 78 with 45 MBq (approximately 1.2 mCi) per mouse and a volume of 0.2 mL. After administration, the tumor size and weight of the animals were measured periodically, and the tumor growth curve was drawn to understand the inhibitory effect of the drug on tumor.

Sequence of PD-1/PD-L1 (Q9NZQ7 19-238): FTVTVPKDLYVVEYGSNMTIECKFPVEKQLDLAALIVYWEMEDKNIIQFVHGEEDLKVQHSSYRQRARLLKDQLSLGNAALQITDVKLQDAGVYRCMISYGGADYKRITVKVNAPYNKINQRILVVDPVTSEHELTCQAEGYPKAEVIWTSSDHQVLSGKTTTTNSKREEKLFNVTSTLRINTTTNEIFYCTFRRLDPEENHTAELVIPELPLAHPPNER

Consider `Cc1c(/C=C/c2cc(OCCOCCN3CCN(CC(=O)O)CCN(CC(=O)O)CCN(CC(=O)O)CC3)c(CN3CCCC[C@H]3C(=O)O)cc2C(F)(F)F)cccc1-c1ccccc1` [Compound 2], for which the IC50 on PD-1/PD-L1 stood at 1.29 nM. `Cc1c(/C=C/c2cc(OCCNC(=O)CN3CCN(CC(=O)O)CCN(CC(=O)O)CCN(CC(=O)O)CC3)c(CN3CCCC[C@H]3C(=O)O)cc2C(F)(F)F)cccc1-c1ccccc1` [Compound 3, (2S)-1-({4-[(1E)-2-(2-Methyl-3-phenylphenyl)vinyl]-5-(trifluoromethyl)-2-{[2-({2-[4,7,10-tris(carboxymethyl)-1,4,7,10-tetraazacyclododecan-1-yl]acetyl}amino)ethyl]oxy}phenyl}methyl)hexahydropyridine-2-carboxylic acid] came in with an IC50 on PD-1/PD-L1 of 3.16 nM. Take `Cc1c(/C=C/c2cc(OCCCCNC(=O)CN3CCN(CC(=O)O)CCN(CC(=O)O)CCN(CC(=O)O)CC3)c(CN3CCCC[C@H]3C(=O)O)cc2C(F)(F)F)cccc1-c1ccccc1` [Compound 4, (2S)-1-({4-[(1E)-2-(2-Methyl-3-phenylphenyl)vinyl]-5-(trifluoromethyl)-2-{[4-({2-[4,7,10-tris(carboxymethyl)-1,4,7,10-tetraazacyclododecan-1-yl]acetyl}amino)butyl]oxy}phenyl}methyl)hexahydropyridine-2-carboxylic acid]: the IC50 at PD-1/PD-L1 worked out at 0.888 nM. `Cc1c(/C=C/c2cc(OCCOCCN3CCN(CC(=O)O)CCN(CC(=O)O)CCN(CC(=O)O)CC3)c(CN3CCCC[C@H]3C(=O)O)cc2C(F)(F)F)cccc1-c1ccccc1` [Compound 6] came in with a half-inhibitory concentration (IC50) on PD-1/PD-L1 of 2.66 nM. For the same molecule, in the test on tumor, the “inhibition of tumor growth” value is listed as “very good therapeutic effects on inhibiting tumor growth”. Take `Cc1c(/C=C/c2cc(OCCNC(=O)C3CCC(CNC(=O)CN4CCN(CC(=O)O)CCN(CC(=O)O)CCN(CC(=O)O)CC4)CC3)c(CN3CCCC[C@H]3C(=O)O)cc2C(F)(F)F)cccc1-c1ccccc1` (stereo partly drawn) [Compound 9]: at PD-1/PD-L1, the IC50 worked out at 1.07 nM. With `Cc1ccc(CCCC(=O)NCCCC[C@H](NC(=O)CN2CCN(CC(=O)O)CCN(CC(=O)O)CCN(CC(=O)O)CC2)C(=O)NCCOc2cc(/C=C/c3cccc(-c4ccccc4)c3C)c(C(F)(F)F)cc2CN2CCCC[C@H]2C(=O)O)cc1` [Compound 10], the IC50 at PD-1/PD-L1 was found to be 169 nM.

With `Cc1ccc(CCCC(=O)NCCCC[C@H](NC(=O)CN2CCN(CC(=O)O)CCN(CC(=O)O)CCN(CC(=O)O)CC2)C(=O)NCCCCOc2cc(/C=C/c3cccc(-c4ccccc4)c3C)c(C(F)(F)F)cc2CN2CCCC[C@H]2C(=O)O)cc1` [Compound 12], the IC50 on PD-1/PD-L1 was 32.5 nM. Further, the “inhibition of tumor growth” value in the test with tumor is on record as “very good therapeutic effects on inhibiting tumor growth”. In the same order, the values of `Cc1ccc(CCCC(=O)NCCCC[C@H](NC(=O)CN2CCN(CC(=O)O)CCN(CC(=O)O)CCN(CC(=O)O)CC2)C(=O)NCCOc2cc(/C=C/c3cccc(-c4ccccc4)c3C)c(C(F)(F)F)cc2CN2CCCC[C@H]2C(=O)O)cc1` [Compound 13] are 300 nM and “very good therapeutic effects on inhibiting tumor growth”. In the case of `Cc1c(/C=C/c2cc(OCCNC(=O)C3CCC(CNC(=O)CN4CCN(CC(=O)O)CCN(CC(=O)O)CCN(CC(=O)O)CC4)CC3)c(CN3CCCC[C@H]3C(=O)O)cc2C(F)(F)F)cccc1-c1ccccc1` (stereo partly drawn) [Compound 14], the IC50 on PD-1/PD-L1 worked out at 0.95 nM. Further, the “inhibition of tumor growth” value in the test with tumor is “very good therapeutic effects on inhibiting tumor growth”. Take `Cc1cc(CN2CCCC[C@H]2C(=O)O)c(OCCOC(=O)CN2CCN(CC(=O)[O-])CCN(CC(=O)[O-])CCN(CC(=O)[O-])CC2)cc1/C=C/c1cccc(-c2ccccc2)c1C#N.[Lu+3]` [Compound 15]: the IC50 at PD-1/PD-L1 came to 5.33 nM. Also, the “inhibition of tumor growth” value in the test on tumor is “very good therapeutic effects on inhibiting tumor growth”. As to `Cc1c(/C=C/c2cc(OCCCCCNC(=O)CN3CCN(CC(=O)O)CCN(CC(=O)O)CCN(CC(=O)O)CC3)c(CN3CCCC[C@H]3C(=O)O)cc2C(F)(F)F)cccc1-c1ccccc1` [Compound 16], the IC50 on PD-1/PD-L1 was determined as 1.42 nM. As to `Cc1c(/C=C/c2cc(OCCNC(=O)C3CCN(C(=O)CN4CCN(CC(=O)O)CCN(CC(=O)O)CCN(CC(=O)O)CC4)CC3)c(CN3CCCC[C@H]3C(=O)O)cc2C(F)(F)F)cccc1-c1ccccc1` [Compound 18], the IC50 at PD-1/PD-L1 is 0.901 nM.

`Cc1c(/C=C/c2cc(OCC3CCN(C(=O)CN4CCN(CC(=O)O)CCN(CC(=O)O)CCN(CC(=O)O)CC4)CC3)c(CN3CCCC[C@H]3C(=O)O)cc2C(F)(F)F)cccc1-c1ccccc1` [Compound 19] returned an IC50 on PD-1/PD-L1 of 0.869 nM. `Cc1c(/C=C/c2cc(OCC3CCN(C(=O)CN4CCN(CC(=O)O)CCN(CC(=O)O)CCN(CC(=O)O)CC4)CC3)c(CN3CCCC[C@H]3C(=O)O)cc2C(F)(F)F)cccc1-c1ccccc1` [Compound 20] came in with an IC50 on PD-1/PD-L1 of 1.01 nM. For the same molecule, the “inhibition of tumor growth” value in the test on tumor was “very good therapeutic effects on inhibiting tumor growth”. Regarding `Cc1ccc(CCCC(=O)NCCCC[C@H](NC(=O)CN2CCN(CC(=O)O)CCN(CC(=O)O)CCN(CC(=O)O)CC2)C(=O)NCC2CCC(C(=O)NCCOc3cc(/C=C/c4cccc(-c5ccccc5)c4C)c(C(F)(F)F)cc3CN3CCCC[C@H]3C(=O)O)CC2)cc1` (stereo partly drawn) [Compound 21], the IC50 on PD-1/PD-L1 worked out at 3.74 nM. Consider `Cc1ccc(CCCC(=O)NCCCC[C@H](NC(=O)CN2CCN(CC(=O)O)CCN(CC(=O)O)CCN(CC(=O)O)CC2)C(=O)NCC2CCC(C(=O)NCCOc3cc(/C=C/c4cccc(-c5ccccc5)c4C)c(C(F)(F)F)cc3CN3CCCC[C@H]3C(=O)O)CC2)cc1` (stereo partly drawn) [Compound 22], for which the IC50 on PD-1/PD-L1 amounted to 5.03 nM. For the same molecule, in the test with tumor, the “inhibition of tumor growth” value is recorded as “very good therapeutic effects on inhibiting tumor growth”. For the molecule `Cc1c(/C=C/c2cc(OCCCCCCNC(=O)CN3CCN(CC(=O)O)CCN(CC(=O)O)CCN(CC(=O)O)CC3)c(CN3CCCC[C@H]3C(=O)O)cc2C(F)(F)F)cccc1-c1ccccc1` [Compound 23], the half-inhibitory concentration (IC50) on PD-1/PD-L1 was determined as 0.833 nM. `Cc1c(/C=C/c2cc(OCCCCCCNC(=O)CN3CCN(CC(=O)[O-])CCN(CC(=O)[O-])CCN(CC(=O)[O-])CC3)c(CN3CCCC[C@H]3C(=O)O)cc2C(F)(F)F)cccc1-c1ccccc1.[Lu+3]` [Compound 24] returned an IC50 at PD-1/PD-L1 of 0.785 nM. The “inhibition of tumor growth” value with tumor is recorded as “very good therapeutic effects on inhibiting tumor growth”. Regarding `Cc1ccc(CCCC(=O)NCCCC[C@H](NC(=O)CN2CCN(CC(=O)O)CCN(CC(=O)O)CCN(CC(=O)O)CC2)C(=O)NCCCCCCOc2cc(/C=C/c3cccc(-c4ccccc4)c3C)c(C(F)(F)F)cc2CN2CCCC[C@H]2C(=O)O)cc1` [Compound 25], the IC50 on PD-1/PD-L1 stood at 16.2 nM. Regarding `Cc1ccc(CCCC(=O)NCCCC[C@H](NC(=O)CN2CCN(CC(=O)O)CCN(CC(=O)O)CCN(CC(=O)O)CC2)C(=O)NCCOCCOc2cc(/C=C/c3cccc(-c4ccccc4)c3C)c(C(F)(F)F)cc2CN2CCCC[C@H]2C(=O)O)cc1` [Compound 30], on PD-1/PD-L1, the IC50 came out at 9.22 nM. On the same count and under the same terms, the figure for `Cc1c(/C=C/c2cc(OCCOCCNC(=O)CN3CCN(CC(=O)O)CCN(CC(=O)O)CCN(CC(=O)O)CC3)c(CN3CCCC[C@H]3C(=O)O)cc2C(F)(F)F)cccc1-c1ccccc1` [Compound 31] is 0.603 nM. In the case of `N#Cc1c(-c2ccccc2)ccnc1/C=C/c1cc(OCC2CCN(C(=O)CN3CCN(CC(=O)[O-])CCN(CC(=O)[O-])CCN(CC(=O)[O-])CC3)CC2)c(CN2CCCC[C@H]2C(=O)O)cc1C(F)(F)F.[Lu+3]` [Compound 44], in the test on tumor, the “inhibition of tumor growth” value is on record as “very good therapeutic effects on inhibiting tumor growth”.

At PD-1/PD-L1, `N#Cc1c(-c2ccccc2)ccnc1/C=C/c1cc(OCCCCCN2CCN(CC(=O)O)CCN(CC(=O)O)CC2)c(CN2CCCC[C@H]2C(=O)O)cc1C(F)(F)F` [Compound 57] showed an IC50 of 4.83 nM. For the molecule `N#Cc1c(-c2ccccc2)ccnc1/C=C/c1cc(OCC2CCN(C(=O)CN3CCN(CC(=O)O)CCN(CC(=O)O)CC3)CC2)c(CN2CCCC[C@H]2C(=O)O)cc1C(F)(F)F` [Compound 59], the IC50 on PD-1/PD-L1 is 5.47 nM.

In the case of `Cc1c(/C=C/c2cc(OCCOCCN3CCN(CC(=O)O)CCN(CC(=O)O)CCN(CC(=O)O)CC3)c(CN3CCCC[C@@H]3C(=O)O)cc2C(F)(F)F)cccc1-c1ccccc1` [Compound 69], the IC50 on PD-1/PD-L1 amounted to 24.8 nM. Regarding `Cc1cc(CN2CCCC[C@H]2C(=O)O)c(OCCCCCN2CCN(CC(=O)O)CCN(CC(=O)O)CCN(CC(=O)O)CC2)cc1/C=C/c1cccc(-c2ccccc2)c1C` [Compound 71], the IC50 at PD-1/PD-L1 was found to be 13.2 nM.

As to `Cc1cc(CN2CCCC[C@H]2C(=O)O)c(OCCOC(=O)CN2CCN(CC(=O)[O-])CCN(CC(=O)[O-])CCN(CC(=O)[O-])CC2)cc1/C=C/c1cccc(-c2ccccc2)c1C#N.[177Lu+3]` [Compound 76], the “inhibition of tumor growth” value in the test with tumor is reported as “very good therapeutic effects on inhibiting tumor growth”. As for `Cc1c(/C=C/c2cc(OCCOCCN3CCN(CC(=O)[O-])CCN(CC(=O)[O-])CCN(CC(=O)[O-])CC3)c(CN3CCCC[C@H]3C(=O)O)cc2C(F)(F)F)cccc1-c1ccccc1.[177Lu+3]` [Compound 77], in the test on tumor, the “inhibition of tumor growth” value is listed as “very good therapeutic effects on inhibiting tumor growth”.
